Results: patent US6410320B1, “Method and compositions for isolation and growth of kidney tubule stem cells, in vitro kidney tubulogenesis and ex vivo construction of renal tubules” (The University of Michigan, priority 1992, dated 2002)

System: renal proximal tubule cells
Assay: Phenotypic transformation / lumen formation (tubulogenesis) in a confluent monolayer, by light and electron microscopy
Format: cell-based, rabbit
Details: density-arrested confluent monolayer; where present TGF-β1 10 ng/ml, EGF 1 nM, RA 0.1 μM; 144 hours in Example 1
Experimental: Rabbit renal proximal tubule cells were grown in primary culture by techniques reported by Humes et al. in Lab. Invest. 64:538-45 (1991). The cells were grown in 35 mm Corning culture dishes with serum-free, hormonally defined Dulbecco's Modified Eagle Hams F-12 media (1:1, v/v) containing L-glutamine, penicillin, streptomycin, 50 nM hydrocortisone, 5 μg/ml of insulin, and 5 μg/ml of transferrin. The cultures were maintained in a humidified 5% CO2/95% air incubator at 37° C. Medium was changed every 3 to 5 days, depending on nutrient requirements based upon cell number. Cultures became confluent in 9 to 12 days. Once confluent, various agents as described below were added in 20 μl aliquots at various times to promote changes in morphologic phenotype or pattern formation.
Specimens for ultrastructural analysis were fixed with 2% glutaraldehyde in Sorenson's buffer (pH 7.2, 310 mOsm). Postfixation occurred in 1% OsO4 followed by dehydration in ethanol. Specimens were transferred through propylene oxide into monomer mixture (poly/Bed 812A, Araldite, DDSA and DMP-30) and polymerized at 60° C. Thin sections were stained with uranyl acetate and lead citrate, and examined in a Zeiss 9-S2 transmission electron microscope.
Of note, in each aggregation of cells one or two lumen structures were usually observed in random sectioning of tissue culture preparations. […]

Molecule	morphologic phenotype of the monolayer / lumen formation
CC1=C(/C=C/C(C)=C/C=C/C(C)=C/C(=O)O)C(C)(C)CCC1 [RA, all-trans retinoic acid]	no dramatic effect on the appearance of the monolayer
TGF-β1: transforming growth factor-β1 (porcine platelets) from R & D Systems	no lumen formation was observed
